Results from patent EP0983055B1, “COMPOSITION COMPRISING AN AMINO ACID N-UNDECYLENOYL; APPLICATION IN COSMETICS” (SOCIETE D'EXPLOITATION DE PRODUITS POUR LES INDUSTRIES …, priority 1997, dated 1999).

Key:
[1] = tested on: Staph. aureus; experiment: MIC (CMI) determination in liquid medium; format: cell-based; details: pH5, substance alone, 72 h incubation at 30°C
Procedure: (§1) On a déterminé les CMI en milieu liquide, avec un temps d'incubation de 72 heures à 30°C, à […] (bouillon Trypticase soja tamponné), du Lipacide™ UG seul, du conservateur testé seul, ainsi que du mélange des deux produits La comparaison des résultats consignés dans les tableaux suivants fait apparaître nettement une synergie anti-microbienne qui autorise ainsi une réduction de la concentration nécessaires en conservateurs chimique dans les compositions.
(§2) La composition A est diluée dans l'eau pour obtenir la composition A2 contenant 0,05 % en poids d'undécylènoyl glycine et 0,05 % en poids d'octanoyl glycine et la composition A3 contenant 0,125 % en poids d'undécylènoyl glycine et 0,125 % en poids d'octanoyl glycine.
(§3) On obtient les résultats suivants (CMI à pH5).

[2] = tested on: Aspergillus Niger; experiment: MIC (CMI) determination in liquid medium; format: cell-based; details: pH5, substance alone, 72 h incubation at 30°C
Procedure: as §1, §2, §3

| SMILES | CMI [1] | CMI [2] |
| --- | --- | --- |
| CCCCCCCC(=O)NCC(=O)O [octanoyl glycine] | 0,025% | 2,5% |
| C=CCCCCCCCCC(=O)NCC(=O)O [undécylènoyl glycine] | 0,01% | 0,25% |
